pIC50: −log10 of the molar value. Like-named read-outs stand apart in the source and are kept apart here.
Experiments:
Rat Galanin-1 Receptor = target: T1, Rat Galanin-1 Receptor (Rattus norvegicus, UniProt Q62805); experiment: Rat Galanin-1 Receptor Mediated Inhibition of Acetylcholine Release from Rat Brain Cortical Slices (superfusion); conditions: for Acetycholine Secretion, Stimulated (% change) / Acetycholine Secretion, Stimulated: K+-evoked; for Acetycholine Secretion, Stimulated (% change) / Acetycholine Secretion, Basal (% change): percent in brackets, versus control
T1 sequence (Q62805 1-346): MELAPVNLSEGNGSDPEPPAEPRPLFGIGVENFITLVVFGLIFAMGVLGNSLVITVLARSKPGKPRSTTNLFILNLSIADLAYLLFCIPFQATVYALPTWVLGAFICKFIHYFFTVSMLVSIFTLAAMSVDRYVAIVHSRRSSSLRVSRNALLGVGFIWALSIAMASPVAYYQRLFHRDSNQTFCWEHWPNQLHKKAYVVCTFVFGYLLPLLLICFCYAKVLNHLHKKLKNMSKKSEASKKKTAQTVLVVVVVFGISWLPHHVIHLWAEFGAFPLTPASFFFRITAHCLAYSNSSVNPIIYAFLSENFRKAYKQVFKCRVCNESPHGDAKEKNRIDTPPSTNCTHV
Experimental: Rat brain cerebrocortical tissues were chopped into slices of 300×300×3,000 mm using a Mcllwain tissue chopper. […] After incubation, the slices were washed three times with ice-cold physiological solution and resuspended in 6 ml of cold solution. Equal aliquots of the tissue suspension were placed in each of 6 parallel superfusion chambers (Hugo Sachs Elektronik, March-Hugstetten, Germany). A circular piece of nylon mesh (pore size 250 um) was placed just below each chamber outlet in order to prevent the loss of tissue. The chambers were perfused against gravity with oxygenated Krebs-Ringer containing 1 mM physostigmine hemisulfate at a flow rate of 1 ml/min. […] The onset of superfusion was defined as time zero (t0). Starting at 30 min after t0, 10 min fractions of the effluent were collected.
Release of [^3H]acetylcholine was induced by superfusing tissues for 30 sec with 65 mM K^+-Krebs-Ringer solution (made by isomolar replacement of NaCl with KCl). Four potassium pulses were given respectively at 40 min (S1), 70 min (S2), 100 min (S3) and 130 min (S4) after t0. […] To permit construction of concentration-effect curves, concentrations of agents were increased 10 fold between each stimulus.
Following perfusion, the tissue was homogenized in 1 ml ethanol and aliquots of superfusates (0.4 ml) and tissue homogenates (0.04 ml) were added to 5 ml of Scintsafe PlusTM 50% (Fisher Scientific, Pittsburgh, Pa.) and radioactivity counted by liquid scintillation spectrometry. The total ^3H content in this procedure consisted mainly of [^3H]acetylcholine.
Tritium (^3H) efflux into the superfusate was calculated as the fraction of tritium content in the slices or synaptosomes at the onset of the respective collection period. For calculation of the stimulated tritium overflow, the estimated basal efflux (the average of the 10 min fractions immediately before and after each stimulation) was subtracted from the total tritium efflux during the 10 min fraction which began with the 30 sec K^+ pulse. This difference was then used to calculate the percent of K^+-evoked release of acetylcholine.
In order to quantify the in vitro effect of a drug on stimulated tritium outflow, the ratio of the fraction released by a given pulse, Sn, to that evoked by S1, was determined. Data presented below are expressed as the mean fractional tritium release ±S.E.M. Statistical differences between treatments were tested by the two-tailed Student's t test or the two factor ANOVA as appropriate. Individual differences in the dose-response curve was evaluated by the Newman-Keul multiple comparison.

[1] = target: T2, hGALR-1 contained in membranes from human Bowes melanoma cells (Homo sapiens, UniProt P47211); experiment: Human Galanin-1 Receptor Binding Assay (SPA, 125I human galanin); conditions: inhibition of 125I human galanin binding
T2 construct: hGALR-1 that is contained in membranes from human Bowes melanoma cells; endogenous in cells; host or cells: human Bowes melanoma cells (membranes)
T2 sequence (P47211 1-349): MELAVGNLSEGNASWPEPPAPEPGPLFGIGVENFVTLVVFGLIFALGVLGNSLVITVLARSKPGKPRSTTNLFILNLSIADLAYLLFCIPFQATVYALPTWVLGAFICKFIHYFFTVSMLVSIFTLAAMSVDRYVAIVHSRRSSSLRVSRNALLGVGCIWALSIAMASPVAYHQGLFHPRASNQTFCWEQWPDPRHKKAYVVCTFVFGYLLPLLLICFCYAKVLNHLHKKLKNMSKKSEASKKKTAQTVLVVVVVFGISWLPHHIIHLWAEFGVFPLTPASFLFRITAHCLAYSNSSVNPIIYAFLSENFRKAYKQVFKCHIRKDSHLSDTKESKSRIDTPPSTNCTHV
Experimental: Human Galanin-1 Receptor Binding Assay
This assay determines the concentration (IC50) of a test compound which prevents 50% of galanin from binding to the hGALR-1 that is contained in membranes from human Bowes melanoma cells bound to wheat germ agglutinin conjugated Scintillation Proximity Assay (SPA) beads. The IC50 value is obtained by measuring the effect of half log increment dilutions of the test compound in duplicate using a 96-well plate (eight-rows, 12-columns).
The SPA beads (500 mg) were dissolved in 12.5 mL of assay buffer composed of 20 mM DMSO-HEPES (pH 7.4), 0.1% bovine serum albumin, 2 mM MgCl2, 2 mM CaCl2, and protease inhibitors. Enough of this suspension for five plates (25 μL×5×96 wells=12000 μL) was dispensed into a 50 mL sterile Falcon tube. The amount of membranes required for five plates was then added (50 μg×5×96 wells), followed by 32.5 mL of 30% DMSO-HEPES buffer. The mixture was placed on a rotator and agitated for 0.5 hours and the non-specific binding sites on the beads were blocked by the addition of 5% [final] fetal bovine serum. Each well of the 96-well plate received 100 μL of this mixture.
To the control column (column 12) rows A and B was added 3.75 μL of a 300 μM solution of galantide in 30% DMSO-HEPES buffer, to rows C and D was added 3.75 μL of 30% DMSO-HEPES buffer and to rows E and F was added 3.75 μL of a 300 μM solution of galanin in 30% DMSO-HEPES buffer. In columns 1 through 11 were added solutions of the test compound in 30% DMSO-HEPES buffer starting at 30 μM and decreasing in concentration in half-log dilutions. A solution of radioactive ^125I human galanin (46.25 μL), prepared from 25 micro Curies of ^125I human galanin (2000 ci/mmol) and 500 μL of assay buffer, was added to each well. The plate was sealed with adhesive paper and incubated for 16 hr at room temperature before the quench-corrected bound radioactivity was measured in a Topcount® apparatus. For each dilution, the % inhibition of galanin binding was calculated as follows:
Total binding (T)=Mean counts/minute (cpm) in row C and D in column 12 Non-specific binding (NSB)=Mean cpm in row E and F in column 12 Total specific binding (TS)=T−NSB
net cpm in each well (N)=C−NSB
The IC50 values for each compound were calculated from the non-linear regression curve of the data using Prism® graphics software.

[2] = Table II, formula (II) compounds, read-out: hGAL IC50
[3] = 10 μM + GAL, mean fractional tritium release

| SMILES | Acetycholine Secretion, Stimulated (% change) (Rat Galanin-1 Receptor; 1 μM + GAL) | Acetycholine Secretion, Basal (% change) (Rat Galanin-1 Receptor; 1 μM + GAL) | Acetycholine Secretion, Basal (% change) (Rat Galanin-1 Receptor; 10 μM + GAL) | pIC50 [1, 2] | further results |
| --- | --- | --- | --- | --- | --- |
| O=S1(=O)C=C(c2ccc(I)cc2)S(=O)(=O)CCC1 [Cmpd 17] | −35.2% | −39.2% | −37% | – | Acetycholine Secretion, Stimulated (% change) (Rat Galanin-1 Receptor; 10 μM + GAL): −22.3% |
| O=S1(=O)C=C(c2ccc(Cl)cc2)S(=O)(=O)CCC1 [Cmpd 21] | – | – | – | 5.72 | – |
| O=S1(=O)C=C(c2ccc(Br)cc2)S(=O)(=O)CC1 [Cmpd 2] | – | – | – | – | pIC50 ([1]; Table I, formula (I) compounds, read-out: HGAL IC50): 6.00 |
| COc1cccc(C2=CS(=O)(=O)CCCS2(=O)=O)c1 [Cmpd 15] | – | – | – | 5.96 | – |
| O=S1(=O)C=C(c2cccc(F)c2)S(=O)(=O)CCC1 [Cmpd 16] | −23.9% | −38.9% | −37% | 5.89 | Acetycholine Secretion, Stimulated (Rat Galanin-1 Receptor; 1 μM + GAL, mean fractional tritium release): 6.31; Acetycholine Secretion, Stimulated (Rat Galanin-1 Receptor; [3]): 8.27; Acetycholine Secretion, Basal (Rat Galanin-1 Receptor; [3]): 2.28 |
